According to paper PMC3992131 (Nature chemical biology, 2014):
Like-named read-outs stand apart in the source and are kept apart here. Each block holds one molecule with its values, some of them ahead of it. Where a SMILES comes first, the peptide text is derived from it. Bridges are numbered along the chain shown (N, C = ends). Where no end group is shown, it is not given here.

Legend:
[1] = biological target: FhuA from E. coli MG1655 with an internal His-tag (E. coli) (UniProt P06971); assay: native MS
FhuA = settings: cited from earlier work
E. coli FhuA = biological target: T1, E. coli FhuA (Escherichia coli, UniProt P06971); assay: biochemical; type: binding, Escherichia coli MG1655
T1 sequence (P06971 34-747): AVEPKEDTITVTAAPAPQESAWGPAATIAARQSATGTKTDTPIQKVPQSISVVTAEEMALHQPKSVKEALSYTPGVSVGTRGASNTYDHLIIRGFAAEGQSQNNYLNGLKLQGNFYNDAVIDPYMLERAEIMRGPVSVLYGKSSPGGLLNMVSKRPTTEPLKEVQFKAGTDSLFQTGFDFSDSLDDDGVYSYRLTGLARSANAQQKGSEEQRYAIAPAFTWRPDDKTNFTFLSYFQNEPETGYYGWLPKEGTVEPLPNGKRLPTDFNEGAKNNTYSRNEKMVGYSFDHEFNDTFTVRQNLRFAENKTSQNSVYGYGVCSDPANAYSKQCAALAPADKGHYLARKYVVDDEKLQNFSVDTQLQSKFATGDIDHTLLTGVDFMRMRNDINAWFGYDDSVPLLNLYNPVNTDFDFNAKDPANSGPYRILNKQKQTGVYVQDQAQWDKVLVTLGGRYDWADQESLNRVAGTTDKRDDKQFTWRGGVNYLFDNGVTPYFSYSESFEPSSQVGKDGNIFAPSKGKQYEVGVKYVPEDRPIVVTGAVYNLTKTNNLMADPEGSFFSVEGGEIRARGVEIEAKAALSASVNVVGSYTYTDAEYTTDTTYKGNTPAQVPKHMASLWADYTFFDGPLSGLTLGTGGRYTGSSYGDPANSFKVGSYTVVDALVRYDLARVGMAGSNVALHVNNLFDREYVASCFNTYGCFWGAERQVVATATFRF

human erythrocytes = settings: cited from earlier work
FhuA (Escherichia coli) = FhuA (Escherichia coli) (UniProt P06971); assay: ITC; settings: cited from earlier work
E. coli RNA polymerase = settings: in vitro; cited from earlier work
[2] = tested on: E. coli W3110 wildtype and tonB− strains; assay: tonB antibacterial assay; type: cell-based; settings: spot-on-lawn, 10 μL MccJ25 in MeOH (1-100 μg/mL), LB agar, 37°C overnight
[3] = complex fluid matrices; cited from earlier work
Salmonella = settings: mouse model of infection by Salmonella; cited from earlier work
[4] = tested on: Escherichia and Salmonella species; settings: cited from earlier work

Kd [1]: 16900 nM
Molecule: MccJ25[His5Lys] (peptide)

Molecule: CO[C@H]1/C=C/O[C@@]2(C)Oc3c(C)c(O)c4c(c3C2=O)C(=O)C(N2CCOCC2)=C(NC(=O)/C(C)=C\C=C\[C@H](C)[C@H](O)[C@@H](C)[C@@H](O)[C@@H](C)[C@H](OC(=O)CC(=O)OCC2CCCN(C)C2)[C@@H]1C)C4=O (stereo partly shown) [CGP 4832]
transport by FhuA (FhuA): can transport

Kd (E. coli FhuA): 980 ± 20 nM
Molecule: CC[C@H](C)[C@H](NC(=O)CNC(=O)[C@@H](NC(=O)[C@H](Cc1ccccc1)NC(=O)[C@H](Cc1ccc(O)cc1)NC(=O)[C@@H]1CCC(=O)NCC(=O)NCC(=O)N[C@@H](C)C(=O)NCC(=O)N[C@@H](Cc2cnc[nH]2)C(=O)N[C@@H](C(C)C)C(=O)N2CCC[C@H]2C(=O)N1)C(C)C)C(=O)NCC(=O)N[C@H](C(=O)N1CCC[C@H]1C(=O)N[C@H](C(=O)N[C@@H](CO)C(=O)N[C@@H](Cc1ccccc1)C(=O)N[C@@H](Cc1ccc(O)cc1)C(=O)NCC(=O)O)[C@@H](C)CC)[C@@H](C)O [MccJ25, microcin J25] (GGAGHVPEYFVGIGTPISFYG-OH; lactam N-8)
haemolytic activity (human erythrocytes): without haemolytic activity on human erythrocytes

Molecule: MccJ25 (from UniProt Q9X2V7)
Kd (FhuA (Escherichia coli)): 1200 nM

binding to FhuA (result in words) (E. coli FhuA): absence of binding to FhuA
Molecule: t-MccJ25: MccJ25 hydrolyzed between Phe10 and Val11, obtained by incubation of MccJ25 in the presence of thermolysin (chain 1 GGAGHVPEYF; chain 2 VGIGTPISFYG; also: lactam at chain A 8 to a chain's N-terminus)

Molecule: CO[C@H]1/C=C/O[C@@]2(C)Oc3c(C)c(O)c4c(O)c(cc(O)c4c3C2=O)NC(=O)/C(C)=C\C=C\[C@H](C)[C@H](O)[C@@H](C)[C@@H](O)[C@@H](C)[C@H](OC(C)=O)[C@@H]1C [rifamycin]
transport by FhuA (FhuA): cannot efficiently transport

Molecule: CC[C@H](C)[C@H](NC(=O)CNC(=O)[C@@H](NC(=O)[C@H](Cc1ccccc1)NC(=O)[C@H](Cc1ccc(O)cc1)NC(=O)[C@@H]1CCC(=O)NCC(=O)NCC(=O)N[C@@H](C)C(=O)NCC(=O)N[C@@H](Cc2c[nH]cn2)C(=O)N[C@@H](C(C)C)C(=O)N2CCC[C@H]2C(=O)N1)C(C)C)C(=O)NCC(=O)N[C@H](C(=O)N1CCC[C@H]1C(=O)N[C@H](C(=O)N[C@@H](CO)C(=O)N[C@@H](Cc1ccccc1)C(=O)N[C@@H](Cc1ccc(O)cc1)C(=O)NCC(=O)O)[C@@H](C)CC)[C@@H](C)O [MccJ25, microcin J25] (GGAGHVPEYFVGIGTPISFYG-OH; lactam N-8; C-terminus assumed)
inhibition of E. coli RNA polymerase (E. coli RNA polymerase): inhibit E. coli RNA polymerase with equal efficiency in vitro
internalization dependence on TonB [2]: dependent on the FhuA-TonB system
antibacterial activity ex vivo [3]: has been demonstrated both ex vivo, in complex fluid matrices
antibacterial activity in vivo (Salmonella): in vivo in a mouse model of infection by Salmonella
antibacterial activity/spectrum [4]: potent antibacterial activity exclusively against Escherichia and some Salmonella species
antibacterial activity/spectrum ([4]; through inhibition of RNA polymerase): potent, narrow spectrum antibacterial activity against Escherichia and Salmonella species
